One molecule from patent US20180000794A1, “COMPOSITION FOR PREVENTION OR TREATMENT OF BRONCHIAL ASTHMA COMPRISING PKR INHIBITOR AS ACTIVE INGREDIENT” (INDUSTRIAL COOPERATION FOUNDATION CHONBUK NATIONAL …, priority 2015, published 2018) can be followed below.

Common to all, as to format: in vivo, mouse
Assay [1] relates to mice with neutrophilic severe asthma. Put plainly: Bronchial hyperresponsiveness (Rrs) to aerosol methacholine in mice with neutrophilic severe asthma. Particulars: methacholine 5.0 to 50 mg/ml by nebulizer; compared to the group treated with vehicle only; FIG. 3. From the text:
(§1) 8-week old female C57BL/6 mice were purchased from Orient Bio (Sungnam, Korea) and used as experimental animals. Experimental groups were divided into 4 groups and 5 C57BL/6 mice were assigned to each group. Animals in one experimental group were inhaled with saline and treated with vehicle. Animals in the other three experimental groups were sensitized with ovalbumin (OVA) and lipopolysaccharide (LPS), followed by inhalation of ovalbumin to induce asthma. Animals with induced asthma in one experimental group were treated with vehicle 1 hour before the first inhalation of ovalbumin and 6 hours after the last inhalation of ovalbumin. […]
In order to identify the effects of the PKR inhibitor of the present invention on bronchial hyperresponsiveness in mouse models with neutrophilic severe asthma, aerosol methacholine was administered into the airways of mice, and then the changes in airway function were measured. […] At the same time, the mice were administered with methacholine through the ventilator while gradually increasing the dose from 5.0 mg/ml to 50 mg/ml using a nebulizer, and the bronchial hyperresponsiveness (Rrs) was continuously measured. The bronchial hyperresponsiveness was assessed as a percentage of the basal value when the maximum of Rrs values measured at each methacholine concentration was administered to saline control, and the results are shown in FIG. 3.

Assay [2] shares this test system. Put plainly: Peribronchitis and perivascular inflammation in lung tissues (H&E histology) of mice with neutrophilic severe asthma. The settings on record: C57BL/6 mice, OVA+LPS-induced asthma; H&E stained lung sections, optical microscope 20×; FIG. 2.
Description: as §1, with “ovalbumin. Animals in the other two experimental groups were intraperitoneally administered with 60 μg/kg and […] of the PKR inhibitor [6,8-Dihydro-8-(1H-imidazol-5-ylmethylene)-7H-pyrrolo[2,3-g]benzothiazol-7-one] a total of two times, 1 hour before the first inhalation of ovalbumin and 6 hours after the last inhalation of ovalbumin.” for “ovalbumin.”

Assay [3] deals with IL-4, IL-5, IL-13, IL-17, KC. Put plainly: Cytokines and chemokines in lung tissues by Western blotting, mice with neutrophilic severe asthma. The settings on record: Western blotting of lung tissue proteins; OVA+LPS-induced asthma; FIGS. 4A to 4E.
Description: as §1
Quantitation of cytokines and chemokines was confirmed by Western blotting of the proteins in lung tissues. […] Then, the samples were loaded on SDS-PAGE gel and quantitated using an anti-IL-4 antibody (Serotec, UK) against IL-4, an anti-IL-5 antibody (SantaCruz Biotechnology, USA) against IL-5, anti-IL-13 and anti-IL-17 antibodies (R&D Systems, USA) against IL-13 and IL-17, and an anti-KC antibody against keratinocyte-induced chemokine (KC) (BioVision, USA), and the results are shown in FIGS. 4A to 4E.

For `O=C1Nc2ccc3ncsc3c2/C1=C/c1c[nH]cn1` [PKR inhibitor, 6,8-Dihydro-8-(1H-imidazol-5-ylmethylene)-7H-pyrrolo[2,3-g]benzothiazol-7-one], in assay [1], the “Rrs values (bronchial hyperresponsiveness)” value is reported as “significantly reduced” and the “airway resistance dose response curves” value is given as “shifted to the right”. The “level of airway inflammation in lung tissues” value in assay [2] is “significantly reduced”. Also, in assay [3], the “cytokines and chemokines in lung tissues (IL-4, IL-5, IL-13, IL-17, KC)” value is on record as “reduced”.
